According to patent US8846758B2, “Methods of decreasing glycosylated hemoglobin in patients with dyslipidemia” (TWi Biotechnology, Inc., priority 2011, dated 2014):

Columns and labels:
[1] = tested on: patients with type 2 diabetes mellitus inadequately controlled by previous antidiabetic therapy; assay: Randomized, double-blind, placebo-controlled study of diacerin in uncontrolled type 2 diabetes mellitus: HbA1c; assay type: in vivo, human
Text: To evaluate the efficacy and safety of diacerin for the treatment of type 2 diabetes mellitus (DM).
To compare the efficacy of add-on diacerin with no add-on treatment (placebo) on HbA1c after 24-week double-blind treatment in Type 2 DM patients inadequately controlled by previous antidiabetic therapy.
Male or female patients (BMI≦35 kg/m^2) with type 2 diabetes mellitus on a stable oral hypoglycemic monotherapy for at least 3 months prior to screening visit. The HbA1c measurements taken at screening visit must be between 7% and 12%. Patients enrolled in the study must be receiving one or more oral antihyperglycemic agents including sulfonylurea, biguanides, alpha-glucosidase inhibitors, thiazolidinediones, and nonsulfonylurea insulin secretagogues.
(§1) This was a prospective, randomized, double-blind, and parallel comparison study comparing diacerin 50 mg versus placebo in patients with type 2 diabetes mellitus inadequately controlled by previous antidiabetic therapy. The starting dose of diacerin was 50 mg once daily every morning for 4 weeks and could be adjusted up to 50 mg twice daily (morning and evening) if patients have become accustomed to the medication. Patients were screened for eligibility four weeks (week—4) prior to entry at baseline (week 0). During this 4-week screening period, the participants continued their previous antidiabetic therapy, dietary habits, and other lifestyle habits. In order to be eligible for randomization following the 4-week screening period, patients must not have experienced hypoglycemia and must have had two fasting plasma glucose (FPG) measurements of between 135 to 250 mg/dL. At the end of the screening period, patients who met eligibility requirements were randomly assigned to receive diacerin 50 mg or placebo twice a day for 24 weeks observation. During treatment/observation period, the previous antidiabetic therapy including the class and/or dosage was not changed. Patients were asked to attend the center on eight occasions (screening, baseline, week 4, 8, 12, 16, 20 and 24) during the trial. The total study duration including the screening period for each patient was 28 weeks. There was a two weeks long follow-up period after completion of the treatment/observation. During this follow-up period, patients were followed for adverse events.
The difference (diacerin vs. placebo) of HbA1c reduction between the two treatment groups was analyzed by analysis of covariance (ANCOVA) with baseline value as a covariate. The corresponding 95% confidence interval was calculated. Within-group changes were also analyzed, with paired t test used to evaluate differences from baseline in each treatment group.
For the efficacy parameters, descriptive statistics were presented by visit. Statistical analysis was performed to assess the mean change from baseline. The area under the concentration-time curve (AUC) was used for evaluating the parameters measured by oral glucose tolerance test.
A dyslipidemia sub-group was assembled, wherein subjects had the following baseline levels: a) plasma cholesterol levels greater than 200 mg/dl, or b) plasma triglyceride levels greater than 150 mg/dl, or c) plasma LDL levels greater than 100 mg/dl. The effects of administering […] to the patients in this dyslipidemia sub-group were analyzed by paired t-test compared with the placebo group.
Subjects (n=76) were randomized in a 1:1 ratio to receive twice-daily diacerin 50 mg (n=38), or placebo (n=38) for 24 weeks. 26 subjects in the diacerin group finished the whole treatment period. Within these 26 subjects, there were 16 subjects with plasma cholesterol levels greater than 200 mg/dl, or plasma triglyceride levels greater than 150 mg/dl, or plasma LDL levels greater than 100 mg/dl at baseline respectively. Plasma cholesterol, triglyceride and LDL levels in the other 10 subjects were normal in the baseline. Thus, there were 16 subjects in the dyslipidemia subgroup.

[2] = Same study: body weight and lipid profiles; assay type: in vivo, human; conditions: diacerin 50 mg twice daily, 24 weeks
Protocol: as §1, with “Patients were asked to attend the center on eight occasions (screening, baseline, week 4, 8, 12, 16, 20 and 24) during the trial. The total study duration including the screening period for each patient was 28 weeks. There was a two weeks long follow-up period after completion of the treatment/observation. During this follow-up period, patients were followed for adverse events.” left out
For the efficacy parameters, descriptive statistics were presented by visit. […] The area under the concentration-time curve (AUC) was used for evaluating the parameters measured by oral glucose tolerance test. […]

## CC(=O)Oc1cccc2c1C(=O)c1c(OC(C)=O)cc(C(=O)O)cc1C2=O [diacerin, 4,5-bis(acetyloxy)-9,10-dioxo-2-anthracene carboxylic acid]
[1]; All subjects (N=26) completing 24 weeks, diacerin 50 mg twice daily add-on
  HbA1c mean change from baseline, week 24: −0.63%
[1]; Dyslipidemia subgroup (N=16), diacerin 50 mg twice daily, 24 weeks
  HbA1c mean change from baseline, week 24: −0.82%
[1]; Hyper LDL-cholesterolemia subgroup (N=11), diacerin 50 mg twice daily, 24 weeks
  HbA1c mean change from baseline, week 24: −0.84%
[1]; Hypercholesterolemia subgroup (N=7), diacerin 50 mg twice daily, 24 weeks
  HbA1c mean change from baseline, week 24: −0.76%
[1]; Hypertriglyceridemia or hypercholesterolemia subgroup (N=14), diacerin 50 mg twice daily, 24 weeks
  HbA1c mean change from baseline, week 24: −0.89%
[1]; Hypertriglyceridemia subgroup (N=11), diacerin 50 mg twice daily, 24 weeks
  HbA1c mean change from baseline, week 24: −0.83%
[1]; Normal lipid profiles subgroup (N=10), diacerin 50 mg twice daily, 24 weeks
  HbA1c mean change from baseline, week 24: −0.30%
[1]; after 24-week treatment, all subjects, p<0.05
  decrease of HbA1c levels compared with the placebo group: about 0.63%
[1]; diacerin group, 13 of 26 patients, 24 weeks
  patients whose HbA1c levels decreased by more than or equal to 0.5%: 50%
[1]; dyslipidemia subgroup, 10 of 16 patients, 24 weeks
  patients whose HbA1c levels decreased by more than or equal to 0.5%: 62.5%
[1]; dyslipidemia subgroup, after 24-week treatment
  decrease of HbA1c levels compared with the baseline: about 0.82%
[1]; hypercholesterolemia subgroup, 4 of 7 patients, 24 weeks
  patients whose HbA1c levels decreased by more than or equal to 0.5%: 57.1%
[1]; hypertriglyceridemia or hypercholesterolemia subgroup, 10 of 14 patients, 24 weeks
  patients whose HbA1c levels decreased by more than or equal to 0.5%: 71.4%
[1]; hypertriglyceridemia subgroup, 7 of 11 patients, 24 weeks
  patients whose HbA1c levels decreased by more than or equal to 0.5%: 63.6%
[1]; normal plasma lipid profiles, 4 of 10 patients, 24 weeks
  patients whose HbA1c levels decreased by more than or equal to 0.5%: 40%
[1]; type 2 diabetic patients with normal lipid profile, after 24-week treatment
  decrease of HbA1c levels compared with the baseline: about 0.30%
[2]
  changes in body weight compared with the placebo group: no significant changes
  changes in lipid profiles compared with the placebo group: no significant changes
